Literature values as cited in patent publication US20230255982A1 (priority 2020, published 2023).
Where two headings read alike, the source gives them in different places. Marks after values point to notes of the source that are not given here.

System: stage 3-4 CKD patients with diabetic nephropathy
Conditions: ASCEND

COc1ccccc1Oc1c(NS(=O)(=O)c2ccc(C)cn2)nc(-c2ccncc2)nc1OC [Avosentan]
Occurrence of CHF (25 mg, N = 455): 5.9%* | Occurrence of ESRD (25 mg, N = 455): 4.4% | Occurrence of CHF (50 mg, N = 478): 6.1%* | Occurrence of ESRD (50 mg, N = 478): 5.0%
